Results on two compounds are retold here after ChEMBL document CHEMBL5360614, “Quinoline Thiourea-Based Zinc Ionophores with Antibacterial Activity” (J Med Chem, 2023).

The subject of series [1] is Lipid bilayer. The experiment in a line: Induction of ionophore activity across EYPC:CHOL (8:2) large unilamellar vesicles assessed as transmembrane cation transport by measuring decrease in fluorescence intensity for HPTS dye preincubated for 3 mins followed by LiCl addition and mesured after 7.5 mins by HPTS dye based fluorescence spectrophotometric analysis. The conditions noted are these: time 10.5 min.

For series [2], the system named is Lipid bilayer. Put plainly: Induction of ionophore activity across EYPC:CHOL (8:2) large unilamellar vesicles assessed as transmembrane anion transport by measuring decrease in fluorescence intensity for HPTS dye at 10 uM preincubated for 3 mins followed by ZnCl2 addition and mesured after 7.5 mins by HPTS dye based fluorescence spectrophotometric analysis. The note with it: filed as opener, time 10.5 min.

The subject of another series is MDA-MB-231. Put plainly: Cytotoxicity against human MDA-MB-231 cells assessed as reduction in cell viability at 1 to 100 uM incubated for 44 hrs by MTT assay. Format: toxicity, cell-based. The conditions noted are these: mda-mb-231, 44 h, dose 1-100 µM.
The test system of another series is Escherichia coli. Put plainly: Antibacterial activity against Escherichia coli MTCC 1687 assessed as reduction in bacterial growth incubated for 14 to 16 hrs by microbroth dilution method. Format: functional. The note with it: time 14-16 hrs.
For series [3], the system named is Lipid bilayer. Put plainly: Induction of ionophore activity across EYPC:CHOL (8:2) large unilamellar vesicles assessed as transmembrane cation transport by measuring decrease in fluorescence intensity for HPTS dye preincubated for 3 mins followed by RbCl addition and mesured after 7.5 mins by HPTS dye based fluorescence spectrophotometric analysis. The conditions noted are these: time 10.5 min.

In series [4] the test system is Staphylococcus aureus. The experiment in a line: Antibacterial activity against Staphylococcus aureus MTCC-96 assessed as reduction in bacterial growth incubated for 14 to 16 hrs in presence of 100 to 400 uM MgCl2 by microbroth dilution method. The conditions noted are these: time 14-16 hrs. Format: functional, organism-based.
Another series concerns Cell membrane. Put plainly: Induction of cell membrane depolarization in Staphylococcus aureus MTCC-96 assessed as change in fluorescence intensity at 3.13 uM by DiSC3-5 dye based fluorescence method. It counts as subcellular.
Series [5] relates to Staphylococcus aureus. The experiment in a line: Bactericidal activity against Staphylococcus aureus MTCC-96 at 2 times MIC incubated for 2 hrs by time kill assay. Format: functional, organism-based.
In series [6] the test system is Lipid bilayer. Put plainly: Induction of ionophore activity across EYPC:CHOL (8:2) large unilamellar vesicles assessed as transmembrane cation transport by measuring decrease in fluorescence intensity for HPTS dye preincubated for 3 mins followed by CuCl2 addition and mesured after 7.5 mins by HPTS dye based fluorescence spectrophotometric analysis. The conditions noted are these: filed as opener; time 10.5 min.

Series [7] relates to Lipid bilayer. Put plainly: Induction of ionophore activity across EYPC:CHOL (8:2) large unilamellar vesicles assessed as transmembrane cation transport by measuring decrease in fluorescence intensity for HPTS dye preincubated for 3 mins followed by KCl addition and mesured after 7.5 mins by HPTS dye based fluorescence spectrophotometric analysis. The conditions noted are these: time 10.5 min.

Series [8] has as its system Staphylococcus aureus. Put plainly: Antibacterial activity against Staphylococcus aureus MTCC-96 assessed as reduction in bacterial growth incubated for 14 to 16 hrs by microbroth dilution method. The conditions noted are these: time 14-16 hrs. Format: functional.
Series [9] relates to Staphylococcus aureus. Put plainly: Antibacterial activity against Staphylococcus aureus MTCC-96 assessed as reduction in bacterial growth incubated for 14 to 16 hrs in presence of 400 uM ZnCl2 by microbroth dilution method. Format: functional. The note with it: time 14-16 hrs.
Series [10] concerns Staphylococcus aureus. Put plainly: Induction of intracellular ROS generation in Staphylococcus aureus MTCC-96 assessed as change in fluorescence intensity at 1 uM incubated for 30 mins in presence of Zn2+ ions by DCF-DA staining based fluorescence spectroscopic analysis. It counts as functional, organism-based.
Series [11] deals with Staphylococcus aureus. The experiment in a line: In vivo antibacterial activity against Staphylococcus aureus MTCC-96 infected in Balb/c mouse assessed as normal architecture of hepatic artery in liver tissue at 31.6 microM/Kg, iv for 7 days in presence of ZnCl2 by hematoxylin and eosin staining based microscopic analysis. It counts as functional, organism-based. The note with it: time 7.0 day.

The test system of series [12] is Lipid bilayer. Put plainly: Induction of ionophore activity across EYPC:CHOL (8:2) large unilamellar vesicles assessed as transmembrane Zn2+ ion transport by measuring decrease in fluorescence intensity for HPTS dye at 25 uM preincubated for 3 mins followed by 1 to 25 mM ZnCl2 addition and mesured after 7.5 mins by HPTS dye based fluorescence spectrophotometric analysis. The note with it: filed as opener, time 10.5 min.

Series [13] relates to Staphylococcus aureus. Put plainly: In vivo antibacterial activity against Staphylococcus aureus MTCC-96 infected in Balb/c mouse assessed as normal architecture of central vein in liver tissue at 31.6 microM/Kg, iv for 7 days in presence of ZnCl2 by hematoxylin and eosin staining based microscopic analysis. It counts as functional, organism-based. The conditions noted are these: time 7.0 day.

For series [14], the system named is Staphylococcus aureus. Put plainly: Induction of intracellular ROS generation in Staphylococcus aureus MTCC-96 at 1 uM incubated for 30 mins in presence of Zn2+ ions by DCF-DA staining based fluorescence microscopic analysis. It counts as functional, organism-based.
The subject of a further series is PBMC. The experiment in a line: Cytotoxicity against human PBMC cells assessed as reduction in cell viability at 12.5 to 200 uM incubated for 24 hrs in presence of ZnCl2 by MTT assay. Format: toxicity, cell-based. The conditions noted are these: dose 12.5-200 µM.
In series [15] the test system is Staphylococcus aureus. Put plainly: In vivo antibacterial activity against Staphylococcus aureus MTCC-96 infected in Balb/c mouse assessed as uniform distribution of hepatic lobules in liver tissue at 31.6 microM/Kg, iv for 7 days in presence of ZnCl2 by hematoxylin and eosin staining based microscopic analysis. It counts as functional, organism-based. The note with it: time 7.0 day.

The test system of series [16] is Lipid bilayer. The experiment in a line: Induction of ionophore activity across EYPC:CHOL (8:2) large unilamellar vesicles assessed as transmembrane Zn2+ ion transport by measuring decrease in fluorescence intensity for HPTS dye at 10 uM preincubated for 3 mins in presence of FCCP followed by ZnCl2 addition and mesured after 7.5 mins by HPTS dye based fluorescence spectrophotometric analysis. The conditions noted are these: filed as opener, time 10.5 min.

For series [17], the system named is Staphylococcus aureus. The experiment in a line: In vivo antibacterial activity against Staphylococcus aureus MTCC-96 infected in Balb/c mouse assessed as uniform distribution of sinusoids in liver tissue at 31.6 microM/Kg, iv for 7 days in presence of ZnCl2 by hematoxylin and eosin staining based microscopic analysis. Format: functional, organism-based. The conditions noted are these: time 7.0 day.

Series [18] has as its system Lipid bilayer. The experiment in a line: Induction of ionophore activity across EYPC:CHOL (8:2) large unilamellar vesicles assessed as transmembrane Zn2+ ion transport by measuring decrease in fluorescence intensity for HPTS dye preincubated for 3 mins followed by ZnCl2 addition and mesured after 7.5 mins by HPTS dye based fluorescence spectrophotometric analysis.
For series [19], the system named is Staphylococcus aureus. The experiment in a line: In vivo antibacterial activity against Staphylococcus aureus MTCC-96 infected in Balb/c mouse assessed as normal architecture of bile duct in liver tissue at 31.6 microM/Kg, iv for 7 days in presence of ZnCl2 by hematoxylin and eosin staining based microscopic analysis. The note with it: time 7.0 day. It counts as functional, organism-based.

Series [20] concerns Lipid bilayer. Put plainly: Induction of ionophore activity across EYPC:CHOL (8:2) large unilamellar vesicles assessed as transmembrane Zn2+ ion transport by measuring fluorescence intensity for CFZ dye at 5 to 20 uM preincubated for 3 mins followed by ZnCl2 addition and mesured after 7.5 mins by CFZ dye based fluorescence spectrophotometric analysis. The conditions noted are these: filed as opener; dose 5-20 µM, time 10.5 min.

In series [21] the test system is Lipid bilayer. Put plainly: Induction of ionophore activity across EYPC:CHOL (8:2) large unilamellar vesicles assessed as transmembrane Zn2+ ion transport by measuring fluorescence intensity for CFZ dye at 10 uM preincubated for 3 mins followed by ZnCl2 addition and mesured after 7.5 mins by CFZ dye based fluorescence spectrophotometric analysis. The conditions noted are these: filed as opener, time 10.5 min.

Series [22] deals with Staphylococcus aureus. The experiment in a line: In vivo antibacterial activity against Staphylococcus aureus MTCC-96 infected in Balb/c mouse assessed as reduction in bacterial load by measuring CFU in liver at 31.6 microM/Kg, iv for 7 days in presence of ZnCl2 by CFU assay. Format: functional, organism-based. The note with it: time 7.0 day.

The structures appear in SMILES notation. In brackets after ≈: the same amount, converted by molar mass. Activity calls are given as the source filed them. The rule behind the calls is not given here. Bounds are passed on as bounds.

For the compound `FC(F)(F)c1cc(NC(=S)Nc2cccc3cccnc23)cc(C(F)(F)F)c1`, the result in the series on Lipid bilayer [1], with Lipid bilayer [3], in the series on Staphylococcus aureus [4], with Cell membrane and in the series on Lipid bilayer [7] was inactive. For the same compound, the result in the series on Lipid bilayer [2], in the series on Staphylococcus aureus [5] and in the series with Lipid bilayer [6] was Active. Further, the Activity entry in the series on MDA-MB-231 is given as “Non-Toxic”. The MIC in the series with Escherichia coli was over 50 µM; in the series with Staphylococcus aureus [8], 3.13 µM (≈ 1.3 µg/mL); in the series on Staphylococcus aureus [9], 0.47 µM.
Take `FC(F)(F)c1cc(NC(=S)Nc2cccc3ccc(-n4cnc5ccccc54)nc23)cc(C(F)(F)F)c1`: the outcome in the series on Staphylococcus aureus [10], in the series with Staphylococcus aureus [11], in the series on Lipid bilayer [2], with Lipid bilayer [12], in the series on Staphylococcus aureus [13] and in the series with Staphylococcus aureus [14] was Active. Moreover, the outcome in the series on Staphylococcus aureus [15], in the series on Lipid bilayer [16], in the series on Staphylococcus aureus [17], in the series with Lipid bilayer [6], with Staphylococcus aureus [19] and in the series with Lipid bilayer [21] was Active. Also, the result with Staphylococcus aureus [22] was Active. For the same compound, the outcome in the series on Lipid bilayer [1], with Lipid bilayer [3], with Staphylococcus aureus [4], in the series with Cell membrane and in the series on Lipid bilayer [7] was inactive. The values for the Activity result in the series on MDA-MB-231, in the series with PBMC and in the series with Lipid bilayer [20] were “Non-Toxic”, “Non-Toxic” and “Dose-Dependent Effect”, respectively. Further, the MIC is over 50 µM in the series with Escherichia coli, 3.13 µM (≈ 1.66 µg/mL) in the series with Staphylococcus aureus [8] and 0.47 µM in the series with Staphylococcus aureus [9]. The half-maximal effective concentration (EC50) with Lipid bilayer [18] was determined as 5.49 µM.
